A short description of data set [1]: Paracellular mannitol flux across LLC-MDR1 monolayers. The format is in vitro ADME, porcine. The following applies: pig, LLC-PK1, corresponding to the flux per hour, read-out: mannitol permeability.
Another data set deals with LLC-MDR1 cell monolayers. Described as above. The format is in vitro ADME, porcine.
The nature of data set [2]: Mannitol permeability assay (basolateral to apical) across hCMEC/D3 monolayers. As to conditions: human. The format is in vitro ADME, human. The procedure: (§1) Incubation was performed under cell culture conditions (37 °C, 5% CO2, humidified atmosphere) on a horizontal shaker (55 rpm). […] Basolateral volume was adjusted after each sampling to compensate for changes in the hydrostatic pressure. TEER measurements before and after the assay were carried out to confirm barrier integrity. The apparent permeability coefficients (Papp) in nm per second were calculated according to Artursson. Each experiment was performed in at least three replicates. As was described for the TEER measurements above, mannitol fluxes were compared in the ThinCert®, Transwell®, and Sarstedt-TC-insert systems, using 6-well and 12-well multiwell plates and different membrane materials. Based on this comparison, all subsequent experiments were performed with ThinCert® cell culture inserts [12-well, 0.4 µm pore size, polyethylene terephthalate (PET)] from Greiner Bio-One.

The test system of a further data set is hCMEC/D3 cell monolayers. The description is as above. It counts as in vitro ADME, human. The procedure: as §1
Data set [3] can be described thus: Mannitol permeability assay (basolateral to apical) across RBE4 monolayers. The following applies: rat. The format is in vitro ADME, rat. The procedure: as §1
A further data set concerns RBE4 cell monolayers. The data set is described as above. It counts as in vitro ADME, rat. The procedure:
as §1

The target in data set [4] is Pgp in RBE4-MDR1-EGFP monolayers (Homo sapiens, UniProt P08183). As to conditions: [3H]dLop 5 nM. The procedure:
(§2) For these experiments, a concentration equilibrium transport assay (CETA) was used, which is more sensitive to identify Pgp substrates than conventional bidirectional (concentration gradient) transport assays. In the CETA, the drug is added to both (apical and basolateral) sides of the monolayer, so that the initial drug concentration is the same in both compartments, thereby minimizing the effect of passive diffusion across the cell monolayer.
(§3) In the present study, the CETA assay was used to determine the flux of the radiolabeled Pgp substrate [N-methyl-^3H]N-desmethyl loperamide ([^3H]dLop) across hCMEC/D3-MDR1-EGFP and RBE4-MDR1-EGFP monolayers. […] Cells were grown on permeable ThinCert® filter supports (12-well, 0.4 µm pore size, PET, Greiner Bio-One). […] Transport studies were performed in triplicates seven days after seeding. […] After 30, 60, 120, 180, and 240 min, samples of 50 µL and 70 µL were retrieved from the apical and basolateral chambers, respectively. Quantification of substrate transport was conducted by liquid scintillation counting using a 1450 Microbeta Trilux liquid scintillation counter (Perkin Elmer Wallac). […] Baseline dLop levels were corrected by the amount of dLop absorbed by the filter system as measured in blank inserts without cells. […]

Data set [5] deals with Pgp in hCMEC/D3-MDR1-EGFP monolayers (Homo sapiens, UniProt P08183). The following applies: [3H]dLop 5 nM. Here is the method:
as §2, §3

The target in data set [6] is Pgp in LLC-MDR1 monolayers (Homo sapiens, UniProt P08183). The following applies: [3H]dLop 5 nM.
The test system of data set [7] is hCMEC/D3-MDR1-EGFP cells. Description: Count of Pgp-EGFP-positive intracellular vesicles before and 24 h after doxorubicin, hCMEC/D3-MDR1-EGFP. It counts as cell-based, human. As to conditions: doxorubicin 10 µM, 30 min, 24 h after treatment. Here is the method: (§4) To evaluate the number of green-fluorescent (Pgp-EGFP positive) intracellular vesicles in RBE4- and hCMEC/D3-MDR1-EGFP cells before and 24 h after treatment with doxorubicin (10 µM, 30 min, 37 °C), imaging of the cells was performed using an inverted fluorescence microscope Lumascope 620 (Etaluma Carlsbach, USA) placed in the cell culture incubator. After treatment with doxorubicin, cells were maintained in a doxorubicin-free cell culture medium until imaging. Before imaging, cellular debris was removed by washing the cells twice with sterile PBS followed by the addition of fresh doxorubicin-free culture medium.

Data set [8] deals with RBE4-MDR1-EGFP cells. Description: Count of Pgp-EGFP-positive intracellular vesicles before and 24 h after doxorubicin, RBE4-MDR1-EGFP. It counts as cell-based, rat. As to conditions: doxorubicin 10 µM, 30 min, 24 h after treatment. Here is the method:
as §4

Data set [9] concerns RBE4-MDR1-EGFP cells. The experiment in a line: Doxorubicin toxicity with or without Pgp inhibition by tariquidar, RBE4-MDR1-EGFP. It counts as cell-based, rat. As to conditions: doxorubicin 10 µM, 30 min. The procedure:
(§5) For analysis of the effects of doxorubicin on Pgp-inhibited cells, confluent monolayers of RBE4- and hCMEC/D3-MDR1-EGFP cells grown on coverslips were preincubated with or without the Pgp inhibitor tariquidar (0.5 µM, 1 h, 37 °C) in Opti-MEM before the addition of doxorubicin (10 µM, 30 min, 37 °C). After substrate incubation, cells were covered with cell culture medium for 24 h. Cells were then washed once with PBS, fixed with paraformaldehyde (4%, 30 min), and permeabilized with Triton X-100 (1%, 5 min). Finally, cells were washed and coverslips were mounted in Prolong Gold antifade (Carl Roth GmbH, Karlsruhe, Germany) containing 4’,6-diamidino-2-phenylindole (DAPI) to stain nuclei. Analysis was performed with a Zeiss Axio Observer fluorescence microscope including an ApoTome.2 and using a 40× or 63× objective.

Data set [10] relates to hCMEC/D3-MDR1-EGFP cells. Description: Doxorubicin toxicity with or without Pgp inhibition by tariquidar, hCMEC/D3-MDR1-EGFP. The format is cell-based, human. The following applies: doxorubicin 10 µM, 30 min. The procedure: as §5
Another data set has as its system Pgp in rBCECs. As to conditions: cited from earlier work.
Where [11] appears, read: hCMEC/D3-MDR1 + dox, 7 days after seeding, basolateral to apical, ThinCert 12-well, 0.4 µm, PET.
Setting [12] is: hCMEC/D3-WT, 12-well, Corning #3460, PET, 4·10^6 pores/cm².
[13] abbreviates: hCMEC/D3-WT, 7 days after seeding, basolateral to apical, ThinCert (Greiner #665641) 12-well, 0.4 µm, PET, 2·10^6 pores/cm².
Where [14] appears, read: hCMEC/D3-WT, 6-well, Corning #3412, PC, 1·10^8 pores/cm².
Where [15] appears, read: RBE4-MDR1 + dox, 7 days after seeding, basolateral to apical, ThinCert 12-well, 0.4 µm, PET.
[16] abbreviates: RBE4-WT, 6-well, Corning #3412, PC, 1·10^8 pores/cm².
The mark [17] stands for this setting: RBE4-WT, 12-well, Corning #3460, PET, 4·10^6 pores/cm².
Where [18] appears, read: RBE4-WT, 12-well, Sarstedt #83.3931.040, PET, 1·10^8 pores/cm².
[19] abbreviates: RBE4-WT, 7 days after seeding, basolateral to apical, ThinCert (Greiner #665641) 12-well, 0.4 µm, PET, 2·10^6 pores/cm².

Usually Papp B→A stands for the apparent permeability from the basolateral to the apical side of a cell layer. Take `OC[C@@H](O)[C@@H](O)[C@H](O)[C@H](O)CO` [Mannitol, D-mannitol]: the Papp at 180 min, 1.85 kBq/mL in data set [1] was < 1.2 ×10⁻⁶ cm/s; in data set [2] (setting [11]) it was 5.67 ± 0.252 ×10⁻⁶ cm/s; in data set [2] (setting [12]), 13.5 ± 0.372 ×10⁻⁶ cm/s; in [2] (hCMEC/D3-WT, 12-well, Sarstedt #83.3931.040, PET, 1·10^8 pores/cm²), 19.8 ± 0.489 ×10⁻⁶ cm/s; in data set [2] (setting [13]), 5.38 ± 0.432 ×10⁻⁶ cm/s; in data set [3] (setting [15]) it was 6.07 ± 0.159 ×10⁻⁶ cm/s. Moreover, the Papp at 180 min, 1.85 kBq/mL came to 11.3 ± 1.18 ×10⁻⁶ cm/s in [3] (setting [16]), 15.4 ± 0.215 ×10⁻⁶ cm/s in data set [3] (setting [17]), 21 ± 0.352 ×10⁻⁶ cm/s in data set [3] (setting [18]) and 5.96 ± 0.407 ×10⁻⁶ cm/s in data set [3] (setting [19]). The paracellular mannitol flux result with LLC-MDR1 cell monolayers was “less than 1 % of mannitol diffusion per hour”. Further, the Papp B→A at 180 min, 1.85 kBq/mL in data set [2] (setting [14]) worked out at 10 ×10⁻⁶ cm/s. Moreover, the Mannitol permeability in the data set with hCMEC/D3 cell monolayers (setting [11]) is given as 3.81 ± 0.11 %/h; in the data set with hCMEC/D3 cell monolayers (setting [14]), 14.76 ± 1.01 %/h; with hCMEC/D3 cell monolayers (setting [12]), 11.17 ± 0.36 %/h; in the data set on hCMEC/D3 cell monolayers (setting [13]), 3.71 ± 0.13 %/h; in the data set on RBE4 cell monolayers (setting [15]), 4.30 ± 0.22 %/h; in the data set with RBE4 cell monolayers (setting [16]), 13.62 ± 0.80 %/h. Moreover, the Mannitol permeability was 11.15 ± 0.24 %/h with RBE4 cell monolayers (setting [17]), 19.18 ± 0.13 %/h in the data set on RBE4 cell monolayers (setting [18]) and 4.20 ± 0.30 %/h with RBE4 cell monolayers (setting [19]).

Turning to `[3H]CNC(=O)C(CCN1CCC(O)(c2ccc(Cl)cc2)CC1)(c1ccccc1)c1ccccc1` [dLop, [N-methyl-^3H]N-desmethyl loperamide], the “asymmetrical (basolateral to apical) transport in CETA” value in data set [4] is “not observed”; in data set [5], “not observed”; in data set [6], “such transport was obtained”.

On to `COc1cccc2c1C(=O)c1c(O)c3c(c(O)c1C2=O)C[C@@](O)(C(=O)CO)C[C@@H]3O[C@H]1C[C@H](N)[C@H](O)[C@H](C)O1` [doxorubicin], for which the “increase of average number of Pgp-EGFP-positive vesicles per cell” value in the data set on hCMEC/D3-MDR1-EGFP cells [7] was 170%; in the data set on RBE4-MDR1-EGFP cells [8] it was 220%. Further, the “toxicity 24 h after exposure, Pgp inhibited” value in the data set on RBE4-MDR1-EGFP cells [9] (after tariquidar 0.5 µM) and in the data set with hCMEC/D3-MDR1-EGFP cells [10] (after tariquidar 0.5 µM) was “cell death” in each case. The “toxicity 24 h after exposure, absence of Pgp inhibition” value in the data set on RBE4-MDR1-EGFP cells [9] (no tariquidar) and in the data set on hCMEC/D3-MDR1-EGFP cells [10] (no tariquidar) was “without any signs of toxicity” each time.

`COc1ccc(C[C@H](N)C(=O)N[C@H]2[C@@H](O)[C@H](n3cnc4c(N(C)C)ncnc43)O[C@@H]2CO)cc1` [puromycin]: in the data set with Pgp in rBCECs, the “effect of drug exposure on Rho123 accumulation” value is “significantly reduced”.

The record behind these values is article PMC8330100, “Similarities and differences in the localization, trafficking, and function of P-glycoprotein in MDR1-EGFP-transduced rat versus human brain capillary endothelial cell lines” (Fluids and Barriers of the CNS, 2021).
